# Measured values: patent USRE43327E1, “Hydrophobic polyamine analogs and methods for their use” (Aminex Therapeutics, Inc., priority 2001, dated 2012)
# “And” between values parts separate entries of the source, which are not always exact repeats. Equal values may be shown once. Read-outs that look alike come from different tables or passages of the source.
# Legend:
# [1] = test system: SK-OV-3; assay: Growth inhibition assay, PA alone, SK-OV-3; assay type: cell-based; conditions: PA alone (no DFMO), six days, repeat determinations, read-out: Cell Line IC50 SK-OV-3
# Experimental: (§1) Medias were obtained from Mediatech, Inc. (Herdon, Va.) and serums from Gibco BRL (Gaithersburg, Md.). 50 U/ml penicillin, 50 μg/ml streptomycin and 2 mM L-glutamine (all from Bio Whittaker, Walkersville, Md.) were included in all cultures. […] When cells were cultured with polyamines or ORI compounds, 1 mM aminoguanidine (AG; Sigma) was included to inhibit serum amine oxidase activity.
# [2] = test system: polyamine transport in MDA-MB-231 cells; assay: Polyamine transport and Ki assay (3H-spermidine uptake); assay type: cell-based; conditions: 15 min 37° C., Lineweaver-Burke analysis
# Experimental: [2,9-^3H]spermidine (SPD) from DuPont NEN, Boston, Mass. was added alone or simultaneously with PAs to 24-well plates containing MDA-MB-23 1 cells in log growth. The cells were incubated at 37° C. for 15 min to determine initial rate polyamine uptake. The cells were then washed three times with cold PBS, lysed with 0.1% SDS, and the amount of polyamine incorporation into the cells was determined by scintillation counting of the cell lysates. […] The Ki values were determined using double reciprocal Lineweaver-Burke plot analyses. Ki values were determined from linear equations derived from graphing the slopes of Lineweaver-Burke plot vs. inhibitor concentration, with Ki=y-intercept/slope.
# [3] = test system: 4 cell lines (A375, MDA-MB-231, PC-3, SK-OV-3); assay: Growth inhibition with DFMO, average over 4 cell lines; assay type: cell-based; conditions: Table 3; average over cell lines, with DFMO; read-out: AVG. EC50
# Experimental: Cells were plated in 96-well plates such that they would be in log growth for the duration of the assay. The day after plating, PAs were added to the cells, and growth, if any, permitted to continue for six days in the presence of 1 mM AG and 0.5 μM SPD to insure that any growth inhibition was not the result of depletion of external polyamines in the media. At the end of the six days, cell growth was measured by MTS/PMS dye assay (Cell Titer 96 Aqueous Non-Radioactive Cell Proliferation Assay; Promega, Madison, Wis.).
# [4] = test system: PC-3; assay: Growth inhibition assay, PA alone, PC-3; assay type: cell-based; conditions: PA alone (no DFMO), six days, repeat determinations, read-out: Cell Line IC50 PC-3
# Experimental: as §1
# [5] = test system: SK-OV-3; assay: Growth inhibition assay (MTS/PMS) with DFMO, SK-OV-3; assay type: cell-based; conditions: in the presence of DFMO (1-5 mM), 1 mM AG, 0.5 μM SPD, six days; repeat determinations; read-out: Cell Line EC50 SK-OV-3
# Experimental: as §1
# [6] = test system: MDA-MB-231; assay: Growth inhibition assay, PA alone, MDA-MB-231; assay type: cell-based; conditions: PA alone (no DFMO), six days; repeat determinations; read-out: Cell Line IC50 MDA-MB-231
# Experimental: as §1
# [7] = test system: PC-3; assay: Growth inhibition assay (MTS/PMS) with DFMO, PC-3; assay type: cell-based; conditions: in the presence of DFMO (1-5 mM), 1 mM AG, 0.5 μM SPD, six days; repeat determinations; read-out: Cell Line EC50 PC-3
# Experimental: as §1
# [8] = test system: MDA-MB-231; assay: Growth inhibition assay (MTS/PMS) with DFMO, MDA-MB-231; assay type: cell-based; conditions: in the presence of DFMO (1-5 mM), 1 mM AG, 0.5 μM SPD, six days; repeat determinations; read-out: Cell Line EC50 MDA-MB-231
# Experimental: as §1
# [9] = test system: A375; assay: Growth inhibition assay, PA alone, A375; assay type: cell-based; conditions: PA alone (no DFMO), six days, repeat determinations, read-out: Cell Line IC50 A375
# Experimental: as §1
# [10] = test system: A375; assay: Growth inhibition assay (MTS/PMS) with DFMO, A375; assay type: cell-based; conditions: in the presence of DFMO (1-5 mM), 1 mM AG, 0.5 μM SPD, six days; repeat determinations; read-out: Cell Line EC50 A375
# Experimental: as §1
# [11] = amino acid side chain, un-ionized fraction; Wolfenden 1981; cited from earlier work
SMILES,IC50 [1],Ki [2] [nM],EC50 [3] [nM],IC50 [4],EC50 [5],IC50 [6] [nM],EC50 [7],EC50 [8],EC50 [10],other results
CCCCCCCCCCCCCCCCCCCC(=O)NCCCC[C@H](N)C(=O)NCCCNCCCCNCCCN [IA1],> 3000 nM,15,17,> 3000 nM,,,,,,
CCCCCCCCCCCCCCCCCC(=O)NCCCC[C@H](N)C(=O)NCCCNCCCCNCCCN [IA2],,1.4,14,,27 nM and 21 nM,,,,,
CCCCCCCCCCCCCCCC(=O)NCCCC[C@H](N)C(=O)NCCCNCCCCNCCCN [IA4],,1.5,77,,,,,,,
NCCCNCCCCNCCCNC(=O)[C@@H](N)CCCCNC(=O)OCc1ccccc1 [IA40],,39,,> 300000 nM,,> 300000,8510 nM and 7870 nM,41300 nM and 29800 nM,,
CCCCCCCCCCCCCCCC(=O)NCCCC[C@@H](N)C(=O)NCCCNCCCCNCCCN [IB4],,17,105,,,,,,,
CCCCCCCCC(=O)NCCCC[C@@H](N)C(=O)NCCCNCCCCNCCCN [IB6],,75,,,,,,,,"IC50 ([1]; Homo sapiens, SK-OV-3, 144 h): > 30000 nM; IC50 ([9]; Homo sapiens, A-375, 144 h): > 30000 nM; IC50 ([4]; Homo sapiens, PC-3, 144 h): > 30000 nM"
CC(C)(C)OC(=O)N[C@@H](CCCCN)C(=O)NCCCNCCCCNCCCN [IC41],,191,,430000 nM,,> 300000,16900 nM,36900 nM,,
CCCCCCCCCCCCCCCCS(=O)(=O)NCCCC[C@H](N)C(=O)NCCCNCCCCNCCCN [IIA10],,4,72,,98 nM and 83 nM and 80 nM,,,,16 nM and 10 nM and 9 nM,
CCCCCCCCCCCCCCCCS(=O)(=O)NCCCC[C@@H](N)C(=O)NCCCNCCCCNCCCN [IIB10],18100 nM and 23100 nM,2,110,22000 nM and 19900 nM,134 nM and 224 nM,> 30000,99 nM and 74 nM,169 nM,26 nM and 44 nM,IC50 [9]: 18000 nM and 17700 nM
CCCCCCCC/C=C\CCCCCCCC(=O)NCCCC[C@@H](N)C(=O)NCCCNCCCCNCCCN [IIIB1],> 30000 nM,54,583,> 30000 nM,1570 nM,> 30000,99 nM,491 nM,170 nM,IC50 [9]: > 30000 nM
NCCCNCCCCNCCCNC(=O)[C@H](N)CCCCNCC1CC2CCC1C2 (some centres unmarked) [IVB26],> 100000 nM,,3410,> 100000 nM,7560 nM and 6070 nM,> 100000,910 nM and 1530 nM,1990 nM,2400 nM,IC50 [9]: > 100000 nM
CCCCCCCNCCCC[C@@H](NCCCCCCC)C(=O)NCCCNCCCCNCCCN [IVF6],67700 nM,,5090,> 100000 nM,9500 nM,> 100000,1880 nM,8030 nM,940 nM,IC50 [9]: 67900 nM
NCCCNCCCCNCCCNC(=O)[C@@H](CCCCNCC1CCCCC1)NCC1CCCCC1 [IVF27],> 100000 nM,,1800,> 100000 nM,2160 nM,> 100000,500 nM,2340 nM,2180 nM,IC50 [9]: > 100000 nM
[HH] [hydrogen],,,,,,,,,,free energy for the transfer from the vapor phase to H2O (hydration potential) [11]: 2.39 kcal/mol
C [methane],,,,,,,,,,free energy for the transfer from the vapor phase to H2O (hydration potential) [11]: 1.94 kcal/mol
CCCCN [n-butylamine],,,,,,,,,,free energy for the transfer from the vapor phase to H2O (hydration potential) [11]: -7.00 kcal/mol
CCCNC(=N)N [n-propylguanidine],,,,,,,,,,free energy for the transfer from the vapor phase to H2O (hydration potential) [11]: -14.6 kcal/mol
